Data reported in patent US20030134342A1, “Binding-specific peptides, binding-specific carrier molecules, and uses thereof” (priority 2001, published 2003).

Legend:
CLL cells = assay: ELISA binding of phage displaying peptides to fixed cells: CLL cells; set-up: species or system human; conditions: in words
Experimental: (§1) Preliminary experiments were performed to identify specific peptides by using cells from patients diagnosed with CLL, CML, and AML. The screening was performed by incubating the cells with the phage-peptides from the library. This incubation allows interaction between the peptide and the cell. The binding step was followed by several washes to eliminate free phage. Phage bound on the cell surface was eluted.
(§2) After the last round of binding with one cell type, the eluted phage was plated on an agar plate with the appropriate selection antibiotics. Each individual colony, corresponding to one individual peptide sequence, was amplified in a 96-well plate. After purification, these peptides were tested for their ability to bind to the cells in a microtiter plate by ELISA.
(§3) Each peptide was dispensed in a 96-well plate, containing cells previously fixed. Each colony was tested in a triplicate assay with the appropriate controls. After incubation of cells with an individual clone, the wells were washed to eliminate free phage. The bound phages were detected by using a monoclonal anti-M13 antibody/horseradish peroxidase (HRP) conjugate. After addition of the HRP substrate, the intensity of the coloration was measured by spectrophotometry. The light absorbance values (optical density values, O.D. values) are proportional to the number of phage bound to the cells.
(§4) The binding to various cell types were examined to evaluate the cellular specificity of the phage clones. For example, the clones from phage eluted from CLL patient cells were assayed for their ability to bind cells from an AML patient. Cells from normal donors (non-leukemic) were also evaluated to ascertain leukemia cell specificity.
(§5) Peripheral blood and bone marrow samples were collected from patients after informed consent. The samples were collected in tubes containing sodium citrate. Mononuclear cells were isolated by Ficoll-Hypaque density gradient separation and collection of the cells at a density of 1.077 g/mL.
(§6) The wells of a 96-well plate were pre-treated with 100 μL of poly-L-lysine (0.01 mg/mL in phosphate-buffered saline, 120 mM NaCl, 2.7 mM KCl, 10 mM phosphate buffer, “PBS”) for 2-16 hours at room temperature. After draining the poly-L-lysine from the wells, the excess poly-L-lysine was removed from the wells by flicking. The cells were washed with PBS, then suspended in PBS and diluted to a final concentration of […]. The cell suspension (200 μL; 250,000 cells) were added to each well needed for the assay.
(§7) The plates were centrifuged at 500 g for about 5 minutes in a microplate carrying centrifuge when available. The cells were fixed to the wells through the addition of glutaraldehyde (100 μL of 0.5%) and incubating at room temperature for about an hour. The glutaraldehyde was removed and the cell-coated wells washed once with PBS. Alternatively, the cells were permitted to settle to the well bottoms for about 4 hours at 37° C., and the glutaraldehyde fixative was added after removing the PBS.
(§8) A glycine solution (200 μl of 0.1 M glycine in PBS) containing bovine serum albumin (BSA; 1%) was added to the wells and permitted to incubate for 30 minutes to block excess glutaraldehyde. The glycine was removed, and the cell-coated wells washed once with PBS. A sodium pyrophosphate solution (200 μL of 0.3 mg/mL NaPPi) was added to the wells and incubated for an hour at room temperature to neutralize lysine charges. The pyrophosphate solution was removed and the wells washed once with PBS. Multiwell microtiter plates with cell-coated wells were stored at 4° C. with fresh PBS solution in the coated wells.
(§9) The cells to be studied for binding were suspended in PBS and adsorbed onto to a poly-L-lysine pretreated 96-well plate and kept at 4° C. The PBS was removed from the wells and an H2O2 solution in PBS (6% H2O2 in 200 μL/well) was added. […]

[1] = system: all myeloid cells, both malignant and nonmalignant; assay: ELISA binding of phage displaying peptides to fixed cells: all myeloid cells; set-up: species or system human; conditions: in words
Experimental: as §1, §2, §3, §4, §5, §6, §7, §8, §9

CML cells = assay: ELISA binding of phage displaying peptides to fixed cells: CML cells; set-up: species or system human; conditions: in words
Experimental: as §1, §2, §3, §4, §5, §6, §7, §8, §9

AML cells = assay: ELISA binding of phage displaying peptides to fixed cells: AML cells; set-up: species or system human; conditions: in words
Experimental: as §1, §2, §3, §4, §5, §6, §7, §8, §9

[2] = system: normal peripheral blood cells (lymphocytes and granulocytes); assay: ELISA binding of phage displaying peptides to fixed cells: normal peripheral blood cells; set-up: species or system human; conditions: in words
Experimental: as §1, §2, §3, §4, §5, §6, §7, §8, §9

AML bone marrow cells = assay: Methylcellulose culture of AML bone marrow cells with peptides: proliferation (colonies) and differentiation (morphology); assay type: cell-based, human; conditions: for Activation of Proliferation / Cell Differentiation / Activation of Proliferation GM-CSF / Cell Differentiation GM-CSF: fraction, not explained; for Activation of Proliferation GM-CSF / Cell Differentiation GM-CSF: with GM-CSF
Experimental: The effect of various peptides were analyzed for their biological activity on cells from a patient with acute myelogenous leukemia. The AML cells were cultured into a semi-solid medium of methylcellulose in order to determine the cloning efficiency and the differentiation of the cells. The various peptides were introduced into the semi-solid cell culture at a concentration of 10^−4 M (0.1 mM) peptide. After 14 days continuous incubation of the cell cultures, the morphology of the cells were analyzed. The data are shown in FIG. 7 for the cultures and show the percentage of immature cells in the culture (solid black), the percentage of small myeloblasts (solid white), the percentage of young cells (dark gray), and the relative percentage of monocytes to […] (light gray). The data regarding the biological response of AML bone marrow cells in the presence of the various peptides is shown in the table below.

[3] = system: human bone marrow AML cells; assay: Effect of phage-peptides on differentiation, cell number and viability of freshly obtained AML patient bone marrow cells cultured seven days; assay type: cell-based; conditions: for Number of Cells / Percent Differentiation: phage-peptides; for Percent differentiated in Specimen 1 / Percent differentiated in Specimen 2: peptides in bacteriophage, AML cells cultured seven days in vitro
Excerpt: The effect of various phage-peptides were studied on the differentiation of cells from two AML patients.

## CEFQQWSGKC [G5 12-8B]
CLL cells
  binding of phage displaying the peptide to CLL cells: bind
[1]
  binding of phage displaying the peptide to all myeloid cells, both malignant and nonmalignant: bind
CML cells
  binding of phage displaying the peptide to CML cells: bind
AML cells
  binding of phage displaying the peptide to AML cells: bind
[2]
  binding of phage displaying the peptide to blood cells (lymphocytes or granulocytes): bind

## CDEKRGPNEC [B4 C10]
AML bone marrow cells; peptide alone
  Activation of Proliferation: 1/6
  Cell Differentiation: 2/4
AML bone marrow cells
  Activation of Proliferation GM-CSF: 1/2
  Cell Differentiation GM-CSF: 0/2
AML bone marrow cells; numbers of the AML patients whose cells responded, peptide alone, 10^−4 M, 14 days
  Activation of Proliferation (Patient No.): 9
AML bone marrow cells; numbers of the AML patients whose cells responded, peptide with GM-CSF
  Activation of Proliferation (Patient No.) +GM-CSE: 11

## NETTVREY [A7 11-24]
CLL cells
  binding of phage displaying the peptide to CLL cells: bind
[2]
  binding of phage displaying the peptide to blood cells (lymphocytes or granulocytes): bind

## NNATFEDG [G2 12-8A]
[3]; Patient 1
  Number of Cells: 0.93 106
  Percent Differentiation: 27.5%
[3]; Patient 2
  Number of Cells: 0.31 106
  Percent Differentiation: 52%
[3]
  Percent differentiated in Specimen 1: 28%
  Percent differentiated in Specimen 2: 51%

## VSEDIYDA [F1 12-8B]
CLL cells
  binding of phage displaying the peptide to CLL cells: not
[1]
  binding of phage displaying the peptide to all myeloid cells, both malignant and nonmalignant: bind
CML cells
  binding of phage displaying the peptide to CML cells: binds and bind
[3]; Patient 1
  Number of Cells: 0.82 106
  Percent Differentiation: 34%
[3]; Patient 2
  Number of Cells: 0.22 106
  Percent Differentiation: 52%
[3]
  Percent differentiated in Specimen 1: 34%
  Percent differentiated in Specimen 2: 52%
AML cells
  binding of phage displaying the peptide to AML cells: binds and bind

## EFQQWSGK [B7(1)]
CLL cells
  binding of phage displaying the peptide to CLL cells: not
CML cells
  binding of phage displaying the peptide to CML cells: bind
AML cells
  binding of phage displaying the peptide to AML cells: bind

## EFQQWSGK [H3 11-24]
CLL cells
  binding of phage displaying the peptide to CLL cells: bind

## IEETARKG [D9 12-8B]
CLL cells
  binding of phage displaying the peptide to CLL cells: bind
[1]
  binding of phage displaying the peptide to all myeloid cells, both malignant and nonmalignant: bind
CML cells
  binding of phage displaying the peptide to CML cells: bind
AML cells
  binding of phage displaying the peptide to AML cells: bind
[2]
  binding of phage displaying the peptide to blood cells (lymphocytes or granulocytes): bind

## NHVCSRLG [B4(2)]
CLL cells
  binding of phage displaying the peptide to CLL cells: bind
CML cells
  binding of phage displaying the peptide to CML cells: bind
AML cells
  binding of phage displaying the peptide to AML cells: bind
[2]
  binding of phage displaying the peptide to blood cells (lymphocytes or granulocytes): bind

## VSEDIYDA [E5 12-8B]
CLL cells
  binding of phage displaying the peptide to CLL cells: bind
[2]
  binding of phage displaying the peptide to blood cells (lymphocytes or granulocytes): bind

## CNELHMKQHC [G7 12-8B]
AML bone marrow cells; peptide alone
  Activation of Proliferation: 2/6
  Cell Differentiation: 4/5
AML bone marrow cells
  Activation of Proliferation GM-CSF: 0/2
  Cell Differentiation GM-CSF: 0/2

## EFQQWSGK [G5 12-8B no Cys]
AML bone marrow cells; patient numbers
  Activation of Differentiation: 3

## CNNATVEDEC [C8 12-8B]
AML bone marrow cells; peptide alone
  Activation of Proliferation: 2/8
  Cell Differentiation: 1/8
AML bone marrow cells
  Activation of Proliferation GM-CSF: 1/2
  Cell Differentiation GM-CSF: 1/2
